The test system of assay [1] is PC-3 prostate cancer cells. Description: PC3 cell viability and proliferation assay (MTS). The assay is classed as cell-based. The conditions noted are these: Homo sapiens, 72 hours, mean of 3 independent experiments, read-out: PC3 GI50 D3. The procedure:
PC-3 prostate cancer cells were obtained from ATCC, and maintained in F-12K medium containing 7% FBS and 1% penicillin/streptomycin. Cells were incubated at 37° C. in a humidified atmosphere containing 5% CO2.
Cell viability was assayed using the MTS technique in 96-well culture plates (CellTiter 96® Aqueous Non-Radioactive Cell Proliferation Assay, Promega) according to the manufacturer's instructions. MTS (3-(4,5-dimethyl-thiazol-2-yl)-5-(3-carboxymethoxyphenyl)-2-(4-sulfophenyl)-2H-tetrazolium) is a MTT-derived tetrazolium that is reduced in metabolically active cells into a soluble, cell-permeant formazan. The amount of formazan, detected by its absorbance at 492 nm is proportional to the number of living, metabolically active cells.
2×10^3 PC3 cells were seeded per well. 24 hours later, the medium was changed and the cells treated in triplicate with the following concentrations of each compound: 10 μM-3.33 μM-1.11 μM-370 nM-123 nM-41 nM-14 nM and 5 nM. The compounds were diluted in 100% DMSO, whose final concentration on cells was kept at 0.5%.
Cells were incubated with the compounds for 72 hours, and their viability then assayed by the addition of MTS for 2 hours. Absorbance at 492 nm was measured directly from the 96-well culture plates. GI50 (Growth Inhibition 50) concentrations for each compound were calculated using a sigmoidal variable slope fit (Prism 4.0, Graphpad Softwares). Values represent mean of 3 independent experiments.

Assay [2] addresses T1, Uch-L3 (Homo sapiens, UniProt P15374).
T1 sequence (P15374 1-230): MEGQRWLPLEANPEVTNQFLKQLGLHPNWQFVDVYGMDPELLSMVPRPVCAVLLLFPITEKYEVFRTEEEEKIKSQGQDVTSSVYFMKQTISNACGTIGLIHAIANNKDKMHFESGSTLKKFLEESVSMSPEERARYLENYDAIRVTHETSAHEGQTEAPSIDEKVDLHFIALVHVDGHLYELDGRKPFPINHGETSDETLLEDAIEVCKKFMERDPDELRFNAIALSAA
As to the kind of experiment: UCH-L3 activity assay (Ub-AMC). Format: biochemical. The settings on record: 400 nM Ub-AMC, 13 pM enzyme, 30 min pre-incubation, 60 min at 37° C., sigmoidal fit; read-out: Uch-L3 (inhibition of cysteine protease activity). The procedure: Uch-L3 was diluted in USP buffer (50 mM Tris HCl; 0.5 mM EDTA; 5 mM DTT; 0.01% Triton X-100; Bovine Serum Albumin 0.05 mg.ml^−1 pH7.6). Compounds stocks (100 mM) were stored at −20° C. in DMSO. Compounds were tested at the following final concentrations: 100 μM; 33.3 μM; 11.1 μM; 3.7 μM; 1.23 μM; 412 nM; 137 nM; 45.7 nM, 15.2 nM; 5 nM.
Reactions were performed as duplicates in Black LJL 96 well plates (HE microplates; Molecular Devices; 20 μl final reaction volume). The substrate concentration for Uch-L3 was 400 nM Ub-AMC (Boston Biochem). The concentration of the enzyme (Uch-L3) in specificity assays was 13 pM. The concentrations were determined in order to perform specificity assays under initial velocities at fixed substrate concentration. Compounds were pre-incubated with enzymes for 30 minutes at 25° C. Reactions were initiated by addition of substrate to the plates containing the enzymes (+/−compounds) diluted in assay buffer.
Reactions were incubated for 60 minutes at 37° C. Reactions were stopped by adding acetic acid (100 mM final). Readings were performed on a Pherastar Fluorescent Reader (BMG). δ Emission 380 nm; 6 Excitation=460 nm. Data (mean values +/−standard deviation) were analyzed as % of control (no compound) and plotted as percentage versus the Log of the compound concentration using GraphPad (Prism). Data were fitted to a sigmoidal model (variable slope).

As a reminder, the GI50 is the concentration that inhibits growth by half.

In the case of `CON=C1c2ccccc2-c2nn3c(C)nnc3nc21` (mixture of isomers) [5a, 3-Methyl-1,2,3a,4,10-pentaaza-cyclopenta[b]fluoren-9-one O-methyl-oxime], the GI50 in assay [1] worked out at 6150 nM. Further, the IC50 in assay [2] came out at 410 nM.

For the compound `C=CCON=C1c2ccccc2-c2nn3c(C)nnc3nc21` (mixture of isomers) [5b, 3-Methyl-1,2,3a,4,10-pentaaza-cyclopenta[b]fluoren-9-one O-allyl-oxime], the GI50 in assay [1] is 6690 nM. In addition, in assay [2], the IC50 worked out at 272 nM.

Regarding `C=CCON=C1c2ccccc2-c2nn3c(CCCC)nnc3nc21` (mixture of isomers) [5d, 3-Butyl-1,2,3a,4,10-pentaaza-cyclopenta[b]fluoren-9-one O-allyl-oxime], the GI50 in assay [1] worked out at 2790 nM. Moreover, the IC50 in assay [2] was 250 nM.

For `CCCCCCCCCCON=C1c2ccccc2-c2nn3nnnc3nc21` (mixture of isomers) [8a, 1,2,3,3a, 4,10-Hexaaza-cyclopenta[b]fluoren-9-one O-decyl-oxime], the GI50 in assay [1] is 391 nM. Moreover, the IC50 in assay [2] is 2000 nM.

Turning to `COCCON=C1c2ccccc2-c2nn3nnnc3nc21` (mixture of isomers) [8b, 1,2,3,3a, 4,10-Hexaaza-cyclopenta[b]fluoren-9-one O-(2-methoxy-ethyl)-oxime], the GI50 in assay [1] was found to be 457 nM. Besides, in assay [2], the IC50 came out at 48 nM.

Consider `c1ccc(OCCCON=C2c3ccccc3-c3nn4nnnc4nc32)cc1` (mixture of isomers) [8c, 1,2,3,3a,4,10-Hexaaza-cyclopenta[b]fluoren-9-one O-(3-phenoxy-propyl)-oxime], for which the GI50 in assay [1] is 502 nM. The IC50 in assay [2] is 121 nM.

For `C=CCON=C1c2ccccc2-c2nn3c(CC)nnc3nc21` (mixture of isomers) [10f, 3-Ethyl-1,2,3a,4,10-pentaaza-cyclopenta[b]fluoren-9-one O-allyl-oxime], the GI50 in assay [1] was found to be 8400 nM. Also, the IC50 in assay [2] stood at 235 nM.

With `C=CCON=C1c2ccccc2-c2nn3nnnc3nc21` (mixture of isomers) [compound 6, 1,2,3,3a,4,10-hexaaza-cyclopenta[b]fluoren-9-one O-allyl-oxime], the GI50 in assay [1] was found to be 180 nM. In assay [2], the IC50 stood at 32 nM.

With `ON=C1c2ccccc2-c2nn3nnnc3nc21` (mixture of isomers) [compound 7, 1,2,3,3a,4,10-hexaaza-cyclopenta[b]fluoren-9-one oxime], the GI50 in assay [1] was 466 nM. Besides, the IC50 in assay [2] was determined as 57 nM.

Source of the values: patent publication US20100048575A1, “NOVEL TETRACYCLIC INHIBITORS OF CYSTEINE PROTEASES, THE PHARMACEUTICAL COMPOSITIONS THEREOF AND THEIR THERAPEUTIC APPLICATIONS” (priority 2006, published 2010).
